This is an account of results in US10683269B2 (MISSION THERAPEUTICS LIMITED, priority 2016, dated 2020).

For this assay, the target named is T1, USP7 (Homo sapiens, UniProt Q93009).
T1 construct: The USP7 construct was PCR amplified and cloned into a pFLAG-CMV-6a vector (Sigma-Aldrich) with an N-terminal FLAG tag; made in house; host or cells: HEK293T
T1 sequence (Q93009 whole entry): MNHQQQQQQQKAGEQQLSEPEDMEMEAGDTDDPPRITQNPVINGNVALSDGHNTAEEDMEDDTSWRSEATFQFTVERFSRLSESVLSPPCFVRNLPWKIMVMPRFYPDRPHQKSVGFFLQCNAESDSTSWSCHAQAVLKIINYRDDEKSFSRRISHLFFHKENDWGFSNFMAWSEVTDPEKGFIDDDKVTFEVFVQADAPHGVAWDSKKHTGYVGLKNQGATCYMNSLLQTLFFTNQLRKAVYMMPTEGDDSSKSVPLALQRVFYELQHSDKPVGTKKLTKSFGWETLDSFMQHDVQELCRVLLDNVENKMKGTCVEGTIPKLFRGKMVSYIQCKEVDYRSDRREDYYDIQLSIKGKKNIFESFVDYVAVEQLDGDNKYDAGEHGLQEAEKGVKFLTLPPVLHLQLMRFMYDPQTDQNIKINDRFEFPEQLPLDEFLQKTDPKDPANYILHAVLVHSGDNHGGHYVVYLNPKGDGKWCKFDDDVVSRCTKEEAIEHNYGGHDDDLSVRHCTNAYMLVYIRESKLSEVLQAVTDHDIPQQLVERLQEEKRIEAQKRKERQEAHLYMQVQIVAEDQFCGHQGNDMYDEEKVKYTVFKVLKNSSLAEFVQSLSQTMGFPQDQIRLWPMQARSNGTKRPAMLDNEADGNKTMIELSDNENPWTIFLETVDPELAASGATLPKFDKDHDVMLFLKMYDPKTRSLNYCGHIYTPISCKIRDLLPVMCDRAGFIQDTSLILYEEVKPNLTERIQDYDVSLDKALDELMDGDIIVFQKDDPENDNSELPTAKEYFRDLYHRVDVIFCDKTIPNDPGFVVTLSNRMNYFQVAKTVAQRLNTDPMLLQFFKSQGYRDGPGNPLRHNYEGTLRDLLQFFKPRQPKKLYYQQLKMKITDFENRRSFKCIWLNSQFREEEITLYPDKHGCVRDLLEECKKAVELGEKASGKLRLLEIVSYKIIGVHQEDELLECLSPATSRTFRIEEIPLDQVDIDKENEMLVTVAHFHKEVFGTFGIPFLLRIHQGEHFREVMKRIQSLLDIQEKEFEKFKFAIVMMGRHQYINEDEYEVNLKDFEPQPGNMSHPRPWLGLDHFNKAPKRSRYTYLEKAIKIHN
Briefly: USP7 biochemical IC50 assay (fluorescence polarisation, TAMRA labelled peptide linked to ubiquitin via an iso-peptide bond). The note with it: 30 min pre-incubation of enzyme and compound, read after 2 hr incubation at room temperature, read-out: IC50 range. As to the method:
In Vitro USP7 Inhibition Assay
Expression and Purification of USP7
The USP7 construct was PCR amplified and cloned into a pFLAG-CMV-6a vector (Sigma-Aldrich) with an N-terminal FLAG tag. HEK293T cells were transfected with FLAG-USP7 using TransIT-LT1 transfection reagent (Mirus) according to the manufacturer's instructions. Cells were harvested 40 hours after transfection. […] The resin was washed two times with low salt buffer plus protease inhibitors (complete mini, Roche) and phosphatase inhibitors (PhosSTOP mini, Roche) and one time with high salt buffer (20 mM Tris, pH 7.5, 500 mM NaCl, 0.5 mM EDTA, 5 mM beta-mercaptoethanol, protease inhibitors (complete mini, Roche) and phosphatase inhibitors (PhosSTOP mini, Roche). To elute the bound USP7, elution buffer (10 mM Tris, pH 7.5, 150 mM NaCl, 0.5 mM EDTA, 10% glycerol, 0.5% NP40, 5 mM beta-mercaptoethanol, 0.15 mg/ml 3×FLAG peptide (Sigma-Aldrich)) was added to the resin and incubated at 4° C. for 2.5 hours rotating. The resin was centrifuged at 4000 rpm for 30 seconds, and the supernatant containing purified FLAG-USP7 was removed and stored at −80° C.
USP7 Biochemical IC50 Assay
A typical 8-point dilution series would be 100, 30, 10, 3, 1, 0.3, 0.1, 0.03 μM final. […] Either 1 μl of 50% DMSO or diluted compound was added to the plate. USP7 was diluted in reaction buffer (20 mM Tris, pH 7.5, 100 mM NaCl, 0.05% Tween 20, 0.5 mg/ml BSA, 5 mM—beta mercaptoethanol) to the equivalent of 0.0025 μl/well and 10 μl of diluted USP7 was added to the compound. Enzyme and compound were incubated for 30 min at room temp. Reactions were initiated by the addition of 50 nM of TAMRA labelled peptide linked to ubiquitin via an iso-peptide bond as fluorescence polarisation substrate. Reactions were read immediately after addition of substrate and following a 2 hr incubation at room temperature. Readings were performed on a Pherastar Plus (BMG Labtech). λ Excitation 540 nm; λ Emission 590 nm.
In general terms: In fluorescence polarisation assays a small probe gives low polarisation when free and higher when bound to something large.
As a reminder, the IC50 is the midpoint of a concentration-inhibition curve. For `N#CN1Cc2nc(NCc3ncccn3)nc(-c3ccccc3)c2C1` [Example 113, 4-phenyl-2-((pyrimidin-2-ylmethyl)amino)-5,7-dihydro-6H-pyrrolo[3,4-d]pyrimidine-6-carbonitrile], the IC50 was 1000 to 10000 nM.

`CN1CCC[C@@H](C(=O)Nc2cc3c(c(-c4ccc(F)cc4)c2)CN(C#N)C3)C1` [Example 28, (R)-N-(2-cyano-7-(4-fluorophenyl)isoindolin-5-yl)-1-methylpiperidine-3-carboxamide]: the IC50 was under 1000 nM. As for `N#Cc1ccc(-c2cc(NCC(O)CO)cc3c2CN(C#N)C3)cc1` (stereo not shown) [Example 280, 4-(4-Cyanophenyl)-6-((2,3-dihydroxypropyl)amino)isoindoline-2-carbonitrile], the figure is 1000 to 10000 nM. Next, `COCCc1cc2c(c(-c3ccccc3C(N)=O)c1)CN(C#N)C2` [Example 255, 2-(2-cyano-6-(2-methoxyethyl)isoindolin-4-yl)benzamide]: 1000 to 10000 nM. Next, `N#CN1Cc2nc(NCCO)nc(-c3cccc(N4CCOC4=O)c3)c2C1` [Example 292, 2-((2-hydroxyethyl)amino)-4-(3-(2-oxooxazolidin-3-yl)phenyl)-5,7-dihydro-6H-pyrrolo[3,4-d]pyrimidine-6-carbonitrile]: under 1000 nM.

With `COCCc1cc2c(c(-c3ccccc3)c1)CN(C#N)C2` [Example 215, 6-(2-methoxyethyl)-4-phenylisoindoline-2-carbonitrile], the IC50 is 1000 to 10000 nM. For the compound `CS(=O)(=O)Nc1cc2c(c(-c3ccc(C#N)cc3)c1)CN(C#N)C2` [Example 244, N-(2-cyano-7-(4-cyanophenyl)isoindolin-5-yl)methanesulfonamide], the concentration for half-maximal inhibition (IC50) lay within 1000 to 10000 nM. Next, `N#Cc1ccc(-c2cc(C(=O)NC3CCOCC3)cc3c2CN(C#N)C3)cc1` [Example 238, 2-cyano-7-(4-cyanophenyl)-N-(tetrahydro-2H-pyran-4-yl)isoindoline-5-carboxamide]: 1000 to 10000 nM; `C[C@H](O)c1ccccc1-c1cccc2c1CN(C#N)C2` [Example 71, (S)-4-(2-(1-hydroxyethyl)phenyl)isoindoline-2-carbonitrile]: 1000 to 10000 nM; `N#CN1Cc2cccc(-c3ccc(Cl)cc3C(N)=O)c2C1` [Example 2, 5-chloro-2-(2-cyanoisoindolin-4-yl)benzamide]: 1000 to 10000 nM. For `CC(=O)Nc1cccc(-c2nc(NC(C)=O)nc3c2CN(C#N)C3)c1` [Example 108, N-(3-(2-acetamido-6-cyano-6,7-dihydro-5H-pyrrolo[3,4-d]pyrimidin-4-yl)phenyl)acetamide], the IC50 lay within 1000 to 10000 nM. Next, `CC(C)Nc1cc2c(c(-c3ccc(C#N)cc3)c1)CN(C#N)C2` [Example 272, 4-(4-cyanophenyl)-6-(isopropylamino)isoindoline-2-carbonitrile]: 1000 to 10000 nM; `CC(=O)Nc1nc2c(c(N3CCc4ccccc4C3)n1)CN(C#N)C2` [Example 128, N-(6-cyano-4-(3,4-dihydroisoquinolin-2(1H)-yl)-6,7-dihydro-5H-pyrrolo[3,4-d]pyrimidin-2-yl)acetamide]: 1000 to 10000 nM; `N#CN1Cc2cccc(-c3ccc(F)cc3C(N)=O)c2C1` [Example 158, 2-(2-cyanoisoindolin-4-yl)-5-fluorobenzamide]: 1000 to 10000 nM. As for `Cn1cc(Nc2cc3c(c(-c4ccccc4)c2)CN(C#N)C3)cn1` [Example 5, 6-((1-methyl-1H-pyrazol-4-yl)amino)-4-phenylisoindoline-2-carbonitrile], the figure is under 1000 nM; as for `N#CN1Cc2cccc(-c3cccc(C(=O)NCc4ccccc4)c3)c2C1` [Example 73, N-benzyl-3-(2-cyanoisoindolin-4-yl)benzamide], 1000 to 10000 nM. As for `N#CN1Cc2nc(-c3ccccc3)nc(NCC(N)=O)c2C1` [Example 132, 2-((6-cyano-2-phenyl-6,7-dihydro-5H-pyrrolo[3,4-d]pyrimidin-4-yl)amino)acetamide], the figure is 10000 to 30000 nM; as for `CC(=O)NCc1cc2c(c(-c3ccccc3)c1)CN(C#N)C2` [Example 214, N-((2-cyano-7-phenylisoindolin-5-yl)methyl)acetamide], 1000 to 10000 nM. As for `CNC(=O)c1cc2c(c(-c3ccc(C#N)cc3C#N)c1)CN(C#N)C2` [Example 239, 2-cyano-7-(2,4-dicyanophenyl)-N-methylisoindoline-5-carboxamide], the IC50 is 1000 to 10000 nM. Take `N#CN1Cc2nc(NCc3cccnc3)nc(-c3ccccc3)c2C1` [Example 118, 4-phenyl-2-((pyridin-3-ylmethyl)amino)-5,7-dihydro-6H-pyrrolo[3,4-d]pyrimidine-6-carbonitrile]: the IC50 lay in the range of 1000 to 10000 nM.

Turning to `N#CN1Cc2cccc(-c3cccc4c3C(=O)NCC4)c2C1` [Example 69, 4-(1-oxo-1,2,3,4-tetrahydroisoquinolin-8-yl)isoindoline-2-carbonitrile], the IC50 lay in the range of 1000 to 10000 nM. Next, `N#CN1Cc2nccc(-c3cccc(C(=O)NCc4ccccc4)c3)c2C1` [Example 15, N-benzyl-3-(6-cyano-6,7-dihydro-5H-pyrrolo[3,4-b]pyridin-4-yl)benzamide]: 10000 to 30000 nM; `N#CN1Cc2cc(NC[C@H](O)CO)cc(-c3ccc(F)cc3)c2C1` [Example 282, (S)-6((2,3-dihydroxypropyl)amino)-4-(4-fluorophenyl)isoindoline-2-carbonitrile]: 1000 to 10000 nM; `Cc1ccccc1-c1cc(C(=O)Nc2cccc3c2CN(C#N)C3)[nH]n1` [Example 83, N-(2-cyanoisoindolin-4-yl)-3-(o-tolyl)-1H-pyrazole-5-carboxamide]: 10000 to 30000 nM. Take `N#CN1Cc2nccc(-c3ccc(Cl)cc3)c2C1` [Example 16, 4-(4-chlorophenyl)-5,7-dihydro-6H-pyrrolo[3,4-b]pyridine-6-carbonitrile]: the IC50 lay within 1000 to 10000 nM. Next, `CC1c2cccc(-c3ccc(C#N)cc3C(N)=O)c2CN1C#N` (single isomer, unassigned) [Example 259, 5-cyano-2-(2-cyano-1-methylisoindolin-4-yl)benzamide]: 1000 to 10000 nM; `CN1CCOC(C(=O)Nc2cc3c(c(-c4ccccc4)c2)CN(C#N)C3)C1` (stereo not shown) [Example 53, N-(2-cyano-7-phenylisoindolin-5-yl)-4-methylmorpholine-2-carboxamide]: under 1000 nM; `COc1ccc(C#N)c(-c2cc(C(N)=O)cc3c2CN(C#N)C3)c1` [Example 234, 2-cyano-7-(2-cyano-5-methoxyphenyl)isoindoline-5-carboxamide]: 1000 to 10000 nM. Next, `CC(=O)NCc1cc2c(c(-c3ccc(C#N)cc3)c1)CN(C#N)C2` [Example 217, N-((2-cyano-7-(4-cyanophenyl)isoindolin-5-yl)methyl)acetamide]: 1000 to 10000 nM. Next, `N#CN1Cc2cc(NC(=O)C3CNC(=O)C3)cc(-c3ccccc3)c2C1` (stereo not shown) [Example 42, N-(2-cyano-7-phenylisoindolin-5-yl)-5-oxopyrrolidine-3-carboxamide]: under 1000 nM; `N#CN1Cc2cc(NC(=O)C3CCOCC3)cc(-c3ccccc3)c2C1` [Example 50, N-(2-cyano-7-phenylisoindolin-5-yl)tetrahydro-2H-pyran-4-carboxamide]: under 1000 nM.

Take `CC(=O)Nc1cc2c(c(-c3ccccc3C(N)=O)c1)CN(C#N)C2` [Example 24, 2-(6-acetamido-2-cyanoisoindolin-4-yl)benzamide]: the IC50 was in the range of 1000 to 10000 nM. As for `CC(=O)Nc1cccc(-c2nc(NCCO)nc3c2CN(C#N)C3)c1` [Example 210, N-(3-(6-cyano-2-((2-hydroxyethyl)amino)-6,7-dihydro-5H-pyrrolo[3,4-d]pyrimidin-4-yl)phenyl)acetamide], the figure is 1000 to 10000 nM. For the compound `CNC(=O)NCc1cc2c(c(-c3ccc(C#N)cc3)c1)CN(C#N)C2` [Example 227, 1-((2-cyano-7-(4-cyanophenyl)isoindolin-5-yl)methyl)-3-methylurea], the IC50 is under 1000 nM. As to `CN1CCCC(C(=O)Nc2cc3c(c(-c4ccccc4C(N)=O)c2)CN(C#N)C3)C1` (stereo not shown) [Example 56, N-(7-(2-carbamoylphenyl)-2-cyanoisoindolin-5-yl)-1-methylpiperidine-3-carboxamide], the IC50 was in the range of 1000 to 10000 nM.

With `CN1CCCC(CNc2nc3c(c(-c4ccccc4)n2)CN(C#N)C3)C1` (stereo not shown) [Example 125, 2-(((1-methylpiperidin-3-yl)methyl)amino)-4-phenyl-5,7-dihydro-6H-pyrrolo[3,4-d]pyrimidine-6-carbonitrile], the IC50 was 1000 to 10000 nM.

For the compound `Cn1nccc1CNc1nc2c(c(-c3ccccc3)n1)CN(C#N)C2` [Example 126, 2-(((1-methyl-1H-pyrazol-5-yl)methyl)amino)-4-phenyl-5,7-dihydro-6H-pyrrolo[3,4-d]pyrimidine-6-carbonitrile], the IC50 was in the range of 1000 to 10000 nM.
